From patent publication US11078193B2 (priority 2014, dated 2021)

Experiments:
HBV [1] = test: anti-HBV activity, HepG2.2.15 stable transfected cell line, HBV DNA from secreted virions by realtime PCR; type: cell-based; conditions: Hepatitis B virus, 144 h, HepG2.2.15 cells, 6 days of treatment
HBV [2] = test: anti HBV activity, HepG2.117 inducibly HBV producing cell line (Tet-off), intracellular HBV DNA by realtime PCR; type: cell-based; conditions: Hepatitis B virus, 72 h, HepG2.117 cells, 3 days of treatment
[3] = ATP based toxicity assay (ATPlite), HepG2 cell line; conditions: human, HepG2 cells, ATPlite (ATP levels)
Procedure: Alternatively, cytotoxicity was determined via an ATP-assay: The ATPlite kit from Perkin Elmer was used to assess compound cytotoxicity on the HepG2 cell line by determination of the ATP (adenosine triphosphate) levels. ATP is a marker for functional integrity and cell viability, because it is present in all metabolically active cells and any form of cell injury will result in a rapid decline in cellular ATP concentration. After compound incubation, 1 volume of ATPlite solution was added to the cells and the luminescence signal was measured.

[4] = Cytotoxicity, HepG2 cells, Resazurin assay; type: cell-based; conditions: human

SMILES	EC50 (HBV [1]) [nM]	EC50 (HBV [2]) [nM]	CC50 at 4 days [3] [nM]	CC50 at 4 days [4] [nM]
C[C@@H](NS(=O)(=O)c1cn(C)c(C(=O)Nc2ccnc(C(F)F)c2)c1F)C(F)(F)F [Compound 80, N-[2-(difluoromethyl)-4-pyridyl]-3-fluoro-1-methyl-4-[[(1R)-2,2,2-trifluoro-1-methyl-ethyl]sulfamoyl]pyrrole-2-carboxamide]	10	20	> 25000	> 25000
C[C@@H](NS(=O)(=O)c1cn(C)c(C(=O)Nc2ccnc(C(F)F)c2)c1Cl)C(C)(F)F [Compound 97, 3-chloro-4-[[(1R)-2,2-difluoro-1-methyl-propyl]sulfamoyl]-N-[2-(difluoromethyl)-4-pyridyl]-1-methyl-pyrrole-2-carboxamide]	20	20	> 25000	> 25000
Cc1cc(NC(=O)c2c(F)c(S(=O)(=O)N[C@H](C)C(F)(F)F)cn2C)cc(F)n1 [Compound 152, 3-fluoro-N-(2-fluoro-6-methyl-4-pyridyl)-1-methyl-4-[[(1R)-2,2,2-trifluoro-1-methyl-ethyl]sulfamoyl]pyrrole-2-carboxamide]	< 100	10	> 25000	> 25000
Cc1c(S(=O)(=O)N[C@H](C)C(F)(F)F)c(F)c(C(=O)Nc2cc(F)nc(F)c2)n1C [Compound 199, N-(2,6-difluoro-4-pyridyl)-3-fluoro-1,5-dimethyl-4-[[(1R)-2,2,2-trifluoro-1-methyl-ethyl]sulfamoyl]pyrrole-2-carboxamide]	< 100	6	> 25000	–
C[C@@H](NS(=O)(=O)c1cn(C)c(C(=O)Nc2ccnc(F)c2)c1Cl)C(C)(F)F [Compound 95, 3-chloro-4-[[(1R)-2,2-difluoro-1-methyl-propyl]sulfamoyl]-N-(2-fluoro-4-pyridyl)-1-methyl-pyrrole-2-carboxamide]	60	40	> 25000	21600
C[C@@H](NS(=O)(=O)c1cn(C)c(C(=O)Nc2ccnc(C(F)F)c2)c1Cl)C(F)(F)F [Compound 74, 3-chloro-N-[2-(difluoromethyl)-4-pyridyl]-1-methyl-4-[[(1R)-2,2,2-trifluoro-1-methyl-ethyl]sulfamoyl]pyrrole-2-carboxamide]	20	20	> 25000	> 25000
Cc1cc(NC(=O)c2c(F)c(S(=O)(=O)N[C@H](C)C(C)(F)F)cn2C)cc(C(F)F)n1 [Compound 178, N-[2-(difluoromethyl)-6-methyl-4-pyridyl]-4-[[(1R)-2,2-difluoro-1-methyl-propyl]sulfamoyl]-3-fluoro-1-methyl-pyrrole-2-carboxamide]	240	50	> 25000	–
C[C@@H](NS(=O)(=O)c1cn(C)c(C(=O)Nc2ccnc(Br)c2)c1Cl)C(C)(F)F [Compound 105, N-(2-bromo-4-pyridyl)-3-chloro-4-[[(1R)-2,2-difluoro-1-methyl-propyl]sulfamoyl]-1-methyl-pyrrole-2-carboxamide]	< 100	20	23300	> 25000
C[C@@H](NS(=O)(=O)c1cn(C)c(C(=O)Nc2ccnc(Br)c2F)c1F)C(C)(F)F [Compound 176, N-(2-bromo-3-fluoro-4-pyridyl)-4-[[(1R)-2,2-difluoro-1-methyl-propyl]sulfamoyl]-3-fluoro-1-methyl-pyrrole-2-carboxamide]	< 100	3	> 25000	–
C[C@@H](NS(=O)(=O)c1cn(C)c(C(=O)Nc2ccnc(F)c2)c1F)C(C)(F)F [Compound 98, 4-[[(1R)-2,2-difluoro-1-methyl-propyl]sulfamoyl]-3-fluoro-N-(2-fluoro-4-pyridyl)-1-methyl-pyrrole-2-carboxamide]	40	30	> 25000	> 25000
Cc1cc(NC(=O)c2c(F)c(S(=O)(=O)N[C@H](C)C(F)(F)F)cn2C)cc(C(F)F)n1 [Compound 179, N-[2-(difluoromethyl)-6-methyl-4-pyridyl]-3-fluoro-1-methyl-[[(1R)-2,2,2-trifluoro-1-methyl-ethyl]sulfamoyl]pyrrole-2-carboxamide]	210	70	> 25000	–
C[C@@H](NS(=O)(=O)c1cn(C)c(C(=O)Nc2ccnc(C(F)F)c2)c1F)C(C)(F)F [Compound 88, 4-[[(1R)-2,2-difluoro-1-methyl-propyl]sulfamoyl]-N-[2-(difluoromethyl)-4-pyridyl]-3-fluoro-1-methyl-pyrrole-2-carboxamide]	7	10	> 25000	> 25000
Cn1cc(S(=O)(=O)NC2(C(F)(F)F)CC2)c(F)c1C(=O)Nc1ccnc(Cl)c1 [Compound 175, N-(2-chloro-4-pyridyl)-3-fluoro-1-methyl-4-[[1-(trifluoromethyl)cyclopropyl]sulfamoyl]pyrrole-2-carboxamide]	120	20	> 25000	–
C[C@@H](NS(=O)(=O)c1cn(C)c(C(=O)Nc2ccnc(C#N)c2)c1F)C(C)(F)F [Compound 63, N-(2-cyano-4-pyridyl)-4-[[(1R)-2,2-difluoro-1-methyl-propyl]sulfamoyl]-3-fluoro-1-methyl-pyrrole-2-carboxamide]	10	30	> 25000	> 25000
C[C@@H](NS(=O)(=O)c1cn(C)c(C(=O)Nc2ccnc(F)c2)c1F)C(F)(F)F [Compound 24, 3-fluoro-N-(2-fluoro-4-pyridyl)-1-methyl-4-[[(1R)-2,2,2-trifluoro-1-methyl-ethyl]sulfamoyl]pyrrole-2-carboxamide]	40	40	> 25000	> 25000
Cc1c(S(=O)(=O)N[C@H](C)C(F)(F)F)c(F)c(C(=O)Nc2ccnc(Cl)c2)n1C [Compound 200, N-(2-chloro-4-pyridyl)-3-fluoro-1,5-dimethyl-4-[[(1R)-2,2,2-trifluoro-1-methyl-ethyl]sulfamoyl]pyrrole-2-carboxamide]	110	20	> 25000	–
C[C@@H](NS(=O)(=O)c1cn(C)c(C(=O)Nc2cc(F)nc(F)c2Cl)c1Cl)C(F)(F)F [Compound 185, 3-chloro-N-(3-chloro-2,6-difluoro-4-pyridyl)-1-methyl-4-[[(1R)-2,2,2-trifluoro-1-methyl-ethyl]sulfamoyl]pyrrole-2-carboxamide]	–	740	> 25000	> 25000
C[C@@H](NS(=O)(=O)c1cn(C)c(C(=O)Nc2ccnc(Br)c2)c1F)C(F)(F)F [Compound 23, N-(2-bromo-4-pyridyl)-3-fluoro-1-methyl-4-[[(1R)-2,2,2-trifluoro-1-methyl-ethyl]sulfamoyl]pyrrole-2-carboxamide]	10	10	> 25000	> 25000
Cc1c(S(=O)(=O)N[C@H](C)C(F)(F)F)c(Cl)c(C(=O)Nc2ccnc(C#N)c2)n1C [Compound 32, 3-chloro-N-(2-cyano-4-pyridyl)-1,5-dimethyl-4-[[(1R)-2,2,2-trifluoro-1-methyl-ethyl]sulfamoyl]pyrrole-2-carboxamide]	20	20	> 25000	> 25000
C[C@@H](NS(=O)(=O)c1cc(C(=O)Nc2ccnc(C(F)F)c2)n(C)c1)C(C)(F)F [Compound 100, 4-[[(1R)-2,2-difluoro-1-methyl-propyl]sulfamoyl]-N-[2-(difluoromethyl)-4-pyridyl]-1-methyl-pyrrole-2-carboxamide]	–	80	> 25000	> 25000
Cn1cc(S(=O)(=O)NC2(C)CC(F)(F)C2)c(Cl)c1C(=O)Nc1ccnc(C(F)F)c1 [Compound 99, 3-chloro-4-[(3,3-difluoro-1-methyl-cyclobutyl)sulfamoyl]-N-[2-(difluoromethyl)-4-pyridyl]-1-methyl-pyrrole-2-carboxamide]	10	20	> 25000	> 25000
Cc1cc(NC(=O)c2c(Cl)c(S(=O)(=O)N[C@H](C)C(F)(F)F)cn2C)cc(C(F)F)n1 [Compound 177, 3-chloro-N-[2-(difluoromethyl)-6-methyl-4-pyridyl]-1-methyl-[[(1R)-2,2,2-trifluoro-1-methyl-ethyl]sulfamoyl]pyrrole-2-carboxamide]	260	100	> 25000	–
Cn1cc(S(=O)(=O)NC2(C(F)(F)F)CCC2)c(Cl)c1C(=O)Nc1ccnc(C(F)F)c1 [Compound 108, 3-chloro-N-[2-(difluoromethyl)-4-pyridyl]-1-methyl-4-[[1-(trifluoromethyl)cyclobutyl]sulfamoyl]pyrrole-2-carboxamide]	–	20	> 25000	> 25000
Cn1cc(S(=O)(=O)NC2(C)CC(F)(F)C2)c(F)c1C(=O)Nc1ccnc(C(F)F)c1 [Compound 83, 4-[(3,3-difluoro-1-methyl-cyclobutyl)sulfamoyl]-N-[2-(difluoromethyl)-4-pyridyl]-3-fluoro-1-methyl-pyrrole-2-carboxamide]	–	10	> 25000	> 25000
Cn1cc(S(=O)(=O)NC2(C)CC(F)(F)C2)c(Cl)c1C(=O)Nc1ccnc(Br)c1 [Compound 113, N-(2-bromo-4-pyridyl)-3-chloro-4-[(3,3-difluoro-1-methyl-cyclobutyl)sulfamoyl]-1-methyl-pyrrole-2-carboxamide]	–	10	23700	> 25000
